Measurements published in patent US5298621A, “Oligopeptide derivatives of ipoxantine endowed with immunomodulating activity and pharmaceutical compositions containing same” (Sigma-Tau Industrie Farmaceutiche Riunite S.p.A., priority 1990, dated 1994).

Assays:
Leukemia L 1210 cells = test: Protective effect in L 1210 Leukemia-bearing mice; type: in vivo; conditions: for Dead/total / MST (mean survival time calculated by the median and the first interquartile range): 0.25 mg/kg i.p. from day +1 to day +10; for Weight control (x ± S.E.): 0.25 mg/kg/day day +1 to +10, in g (unit assumed); for number of surviving animals at the indicated day: 0.25 mg/kg/day
Experimental: Test 4 Assessement of the protective effect of ST 657 and ST 789 in tumor-bearing mice.
Male DBA/2 mice and male CD1 mice (Charles River), both aged 6 weeks, were used.
DBA/2 mice were inoculated i.p. with 1×10^5 Leukemia L 1210 cells (ATCC-American Type Culture Collection-Cell Lines & Hybridomas, 5th Ed., 1985) in 0.1 mL of Hank's medium.
The compounds were adminstered i.p. in sterile saline (0.25 mg/kg/day) from day +1 to day +10 (tumor transplantation at day 0).
Also the body weight of the animals was monitored, from day 0 to day +16 for the L 1210 leukemia-bearing mice, and from day 0 to day +21 for the S 180 sarcoma-bearing mice.
Monitoring of body weight was conducted in order to evaluate the evolution of the neoplastic process. Compounds activity was assessed as Mean Survival Time (MST).

Salmonella typhimurium = test: Protective effect in immunodepressed mice experimentally infected with Salmonella typhimurium; type: in vivo; conditions: Salmonella typhimurium 1 × 10^3 cells
Text: Test 2 Assessment of the protective effect induced by ST 657, ST 733, ST 754 and ST 789 on immunodepressed mice experimentally infected.
Male CD1 mice (Charles River, Italy) of different ages were used: mice aged 6 and 12 weeks infected with Klebsiella and mice aged 7 weeks infected with Salmonella (10 mice per group).
Systemic infection in mice was induced via i.p. inoculum of either a pathogenic strain of Klebsiella (K. pneumoniae) or a pathogenic strain of Salmonella (S. typhimurium), which were able to provoke death of the animals within 5 and 20 days, respectively, following the challenge.
Infective doses prepared from overnight broth cultures corresponding to 1.5×10^5 and 3.5×10^5 live cells of K. pneumoniae, and 1×10^3 live cells of S. typhimurium were suspended in 0.2 mL of 5% gastric mucine and then injected.
The immunosuppressor (cyclophosphamide) was administered i.p. in 0.2 mL of sterile saline, 100 mg/kg, 5 days before the infective challenge.
The compounds were administered i.p., 0.25 and 25 mg/kg/day, from day -5 to day -1 (challenge at day 0).
The results obtained are expressed as % mortality and statistically processed with the Fisher's exact test (Biostatistics in Pharmacology, vol. II, Pergamon Press).

[1] = system: responders (thymus of C57B1/6) induced by stimulators (spleen of DBA/2); test: "In vitro-ex vivo" mixed lymphocyte reaction (MLR); design: species or system mice; conditions: 25 mg/kg/day i.p. from day -5 to day -1
Experimental: Test 8 Assessment of the "in vitro-ex vivo" effect of ST 733, ST 754 and ST 789 on the mixed lymphocyte reaction (MLR).
Male DBA/2 mice (Charles River, Italy) aged 8 weeks were used as "stimulators" (4 animals per group); male inbred C57 B1/6 mice (Charles River, Italy) were used as "responders" (4 animals per group).
The compounds were administered i.p. from day -5 to day -1 (thymus excision of "responders" at day 0) 25 mg/kg/day.
The experimental procedure that was used is described by Hudson, L. and Hay, F. C., Practical Immunology, Blackwell Scientific Publication 290 (1980).

splenocytes = test: "In vitro-ex vivo" mytogen (PHA)-induced splenocyte proliferation in mice
Experimental: Test 5 Assessment of the "in vitro-ex vivo" effect of ST 733 and ST 789 on the mytogen (PHA)-induced splenocyte proliferation in mice.
Male B6 D2 F1 mice (Charles River, Italy) aged 7-8 weeks (4 animals per group) were used.
PHA (phytohemagglutinine) active on T lymphocytes was used as mytogen. The mytogen was tested at three different concentrations (suboptimal, optimal, superoptimal): 0.5, 2 and 4 mcg/mL/well.
The compounds were administered i.p. 25 mg/kg/day from day -5 to day -1 (spleen excision at day 0).
The experimental procedure was conducted substantially as described by Kirchner et al, "Splenic suppressor macrophages induced in mice by injection of C. parvum", J. Immunol., 1975, 115:1212.
In particular, the cell suspensions obtained from the spleens of the animals of the same group were pooled and the cell concentration was adjusted to 5×10^6 cell/mL.
To volumes of 0.1 mL of each sample, equal volumes of the mytogen preparation were added so as to obtain the previously indicated final concentrations.
Each sample was prepared in triplicate in U-bottom microtiters. A control, to which 0.1 mL of medium was added instead of the mytogen, was also prepared. The control permits the extent of spontaneous proliferation in the absence of stimulation to be assessed.
The samples were incubated at 37° C. for 48 hours and then they were pulsed with 20 μL ^3 H-TdR (25 μCi/mL).
After 18 hours of further incubation, the cells were collected on filters and counted in a beta-counter to evaluate the incorporated radioactivity (in cpm).
The results for each sample are expressed by calculating the value of the area under the curve (AUC) obtained by plotting the values of the incorporated radioactivity (in cpm) versus the three concentrations of mytogen.
In addition to AUC, also the stimulation index (SI) is considered, that is defined as follows: [formula]

[2] = 0.25 mg/kg/day i.p. day -5 to -1
[3] = 25 mg/kg/day i.p. from day -5 to day -1

N-5-(ipoxantin-9-yl) pentyloxycarbonyl glycyl L-aspartate disodium salt [ST 657]
Dead/total (Leukemia L 1210 cells): 10/10
MST (mean survival time calculated by the median and the first interquartile range) (Leukemia L 1210 cells): 15.5 (13.0-17.0)
Weight control (x ± S.E.) (Leukemia L 1210 cells; Day 0): 18.2 ± 0.5
Weight control (x ± S.E.) (Leukemia L 1210 cells; Day 2): 18.2 ± 0.5
Weight control (x ± S.E.) (Leukemia L 1210 cells; Day 4): 18.8 ± 0.5
Weight control (x ± S.E.) (Leukemia L 1210 cells; Day 7): 20.1 ± 0.4
Weight control (x ± S.E.) (Leukemia L 1210 cells; Day 9): 21.7 ± 0.6
Weight control (x ± S.E.) (Leukemia L 1210 cells; Day 11): 23.9 ± 0.8
number of surviving animals at the indicated day (Leukemia L 1210 cells; Day 14): 6
Weight control (x ± S.E.) (Leukemia L 1210 cells; Day 14): 23.1 ± 0.6
number of surviving animals at the indicated day (Leukemia L 1210 cells; Day 16): 3
Weight control (x ± S.E.) (Leukemia L 1210 cells; Day 16): 22.4 ± 0.6
% Mortality (Salmonella typhimurium; [2]): 0%
% Mortality (Salmonella typhimurium; 25 mg/kg/day i.p. day -5 to -1): 0%

N=C(N)NCCC[C@H](NC(=O)OCCCCCn1cnc2c(=O)[nH]cnc21)C(=O)O [ST 789, N-5-(ipoxantin-9-yl) pentyloxycarbonylarginine, reference compound]
Body weight [1]: 22.1 ± 0.5 g
Spleen weight [1]: 82.7 ± 3.2 mg
Thymus weight [1]: 63.0 ± 7.9 mg
^3 H-TdR Incorporation (cpm ± S.E.) Non stimulated responders [1]: 132.0 cpm
^3 H-TdR Incorporation (cpm ± S.E.) Stimulated responders [1]: 9256 cpm
Thymocytes No. (× 10^7) ([1]; pooled samples): 14.7 × 10^7
Dead/total (Leukemia L 1210 cells): 9/9
MST (mean survival time calculated by the median and the first interquartile range) (Leukemia L 1210 cells): 14.0 (14.0-15.0)
Weight control (x ± S.E.) (Leukemia L 1210 cells; Day 0): 18.2 ± 0.3
Weight control (x ± S.E.) (Leukemia L 1210 cells; Day 2): 18.0 ± 0.4
Weight control (x ± S.E.) (Leukemia L 1210 cells; Day 4): 19.1 ± 0.3
Weight control (x ± S.E.) (Leukemia L 1210 cells; Day 7): 20.1 ± 0.4
Weight control (x ± S.E.) (Leukemia L 1210 cells; Day 9): 21.8 ± 0.4
Weight control (x ± S.E.) (Leukemia L 1210 cells; Day 11): 24.0 ± 0.4
number of surviving animals at the indicated day (Leukemia L 1210 cells; Day 14): 3
Weight control (x ± S.E.) (Leukemia L 1210 cells; Day 14): 22.7 ± 0.9
number of surviving animals at the indicated day (Leukemia L 1210 cells; Day 16): 1
Weight control (x ± S.E.) (Leukemia L 1210 cells; Day 16): 22.5
Body weight (splenocytes; [3]): 23.9 ± 0.1 g
Spleen weight (splenocytes; [3]): 87.0 ± 4.5 mg
Thymus weight (splenocytes; [3]): 64.5 ± 4.6 mg
PHA AUC (area under curve, cpm versus three mytogen concentrations) (splenocytes; PHA 0.5, 2 and 4 mcg/mL/well, 25 mg/kg/day i.p. from day -5 to day -1): 114 × 10^-3
PHA I.S. (stimulation index) (splenocytes; PHA-induced proliferation, 25 mg/kg/day i.p. from day -5 to day -1): 1.30
mytogen-induced proliferation versus the controls (in words) (splenocytes; PHA, 25 mg/kg/day i.p.): slight increase
Splenocytes No. (× 10^7) (splenocytes; pooled samples, 25 mg/kg/day i.p. from day -5 to day -1): 10.0 × 10^7
% Mortality (Salmonella typhimurium; [2]): 10%
% Mortality (Salmonella typhimurium; 25 mg/kg/day i.p. day -5 to -1): 20%
